Here are results for 25 molecules from patent US8445503B2, “Inhibitors of polo-like kinase” (Elan Pharmaceuticals, Inc., priority 2009, dated 2013).

What all share (assay type): biochemical
One test concerns the target GST-PLK1 (Homo sapiens, UniProt P53350). The test can be described thus: PLK TR-FRET peptide assay, PLK1. To be noted: read-out: Plk1 IC50. A general note: Time-resolved FRET reads energy transfer from a long-lived donor to a nearby acceptor.
A further test addresses T1, GST-PLK2 (Homo sapiens, UniProt Q9NYY3).
T1 construct: purchased CarnaBio
In words: PLK TR-FRET peptide assay, PLK2. The conditions noted are these: for IC50: PLK TR-FRET peptide assay, GST-PLK2, read-out: Plk2 IC50; for PLK2 activity relative to the opposite enantiomer / other isomer: comparison of resolved enantiomers, used to assign absolute configuration.

The target of the next test is T2, GST-PLK3 (Homo sapiens, UniProt Q9H4B4).
T2 construct: purchased CarnaBio
T2 sequence (Q9H4B4 whole entry): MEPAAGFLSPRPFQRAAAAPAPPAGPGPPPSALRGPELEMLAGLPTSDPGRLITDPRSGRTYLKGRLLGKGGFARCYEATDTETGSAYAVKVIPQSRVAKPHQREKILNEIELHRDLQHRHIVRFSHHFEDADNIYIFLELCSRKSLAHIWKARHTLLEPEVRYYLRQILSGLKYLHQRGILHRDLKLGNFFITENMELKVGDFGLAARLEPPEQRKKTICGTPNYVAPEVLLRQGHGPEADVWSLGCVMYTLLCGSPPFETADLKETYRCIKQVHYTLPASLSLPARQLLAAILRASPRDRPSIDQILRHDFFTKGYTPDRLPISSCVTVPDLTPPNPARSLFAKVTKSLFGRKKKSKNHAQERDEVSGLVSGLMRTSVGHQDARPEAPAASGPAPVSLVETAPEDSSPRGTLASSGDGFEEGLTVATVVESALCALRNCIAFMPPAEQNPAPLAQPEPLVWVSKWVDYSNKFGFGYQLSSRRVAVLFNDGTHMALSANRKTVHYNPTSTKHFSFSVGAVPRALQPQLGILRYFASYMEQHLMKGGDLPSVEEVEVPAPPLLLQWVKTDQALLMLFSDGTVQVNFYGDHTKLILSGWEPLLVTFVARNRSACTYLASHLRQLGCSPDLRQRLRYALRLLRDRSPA
In words: PLK TR-FRET peptide assay, PLK3. To be noted: PLK TR-FRET peptide assay, GST-PLK3; read-out: Plk3 IC50.

Each structure is given as a SMILES string.

Sequence of GST-PLK1 (P53350 whole entry): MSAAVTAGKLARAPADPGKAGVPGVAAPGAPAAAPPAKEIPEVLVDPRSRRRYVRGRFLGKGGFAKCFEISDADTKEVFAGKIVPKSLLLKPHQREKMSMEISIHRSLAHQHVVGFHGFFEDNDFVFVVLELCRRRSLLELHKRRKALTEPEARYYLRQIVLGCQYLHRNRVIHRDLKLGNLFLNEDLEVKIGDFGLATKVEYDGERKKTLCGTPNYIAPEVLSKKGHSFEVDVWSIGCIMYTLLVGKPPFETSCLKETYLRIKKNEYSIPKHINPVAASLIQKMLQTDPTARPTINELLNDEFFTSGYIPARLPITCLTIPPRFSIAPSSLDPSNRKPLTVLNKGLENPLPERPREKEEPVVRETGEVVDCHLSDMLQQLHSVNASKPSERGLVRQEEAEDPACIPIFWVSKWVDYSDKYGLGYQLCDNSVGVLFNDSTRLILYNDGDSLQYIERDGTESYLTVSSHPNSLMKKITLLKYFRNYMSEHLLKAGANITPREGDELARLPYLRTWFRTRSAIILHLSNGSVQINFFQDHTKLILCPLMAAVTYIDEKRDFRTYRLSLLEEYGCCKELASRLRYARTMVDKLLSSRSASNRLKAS
T1 sequence (Q9NYY3 whole entry): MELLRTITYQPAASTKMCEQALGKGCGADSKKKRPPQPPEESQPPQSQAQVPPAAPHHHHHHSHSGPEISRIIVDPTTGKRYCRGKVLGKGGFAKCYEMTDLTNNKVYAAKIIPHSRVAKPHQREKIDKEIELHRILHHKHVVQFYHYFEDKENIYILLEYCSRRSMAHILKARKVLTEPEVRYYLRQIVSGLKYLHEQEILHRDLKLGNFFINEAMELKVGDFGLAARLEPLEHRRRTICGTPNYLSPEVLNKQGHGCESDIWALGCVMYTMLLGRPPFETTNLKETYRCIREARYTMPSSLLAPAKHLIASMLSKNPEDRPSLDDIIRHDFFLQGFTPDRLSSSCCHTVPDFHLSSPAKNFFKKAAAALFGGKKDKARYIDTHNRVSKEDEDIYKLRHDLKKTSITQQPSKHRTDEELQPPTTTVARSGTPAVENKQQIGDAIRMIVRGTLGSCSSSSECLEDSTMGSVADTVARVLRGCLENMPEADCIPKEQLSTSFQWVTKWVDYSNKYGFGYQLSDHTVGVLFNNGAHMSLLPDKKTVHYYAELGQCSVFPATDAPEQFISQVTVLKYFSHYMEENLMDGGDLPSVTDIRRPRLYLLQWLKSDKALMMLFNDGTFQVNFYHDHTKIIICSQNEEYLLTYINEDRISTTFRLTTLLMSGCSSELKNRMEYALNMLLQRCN

Regarding `CC[C@@]12COCCN1c1nc(-c3ccncc3-c3ccccc3)ncc1N(C)C2=O` [Example 394, (S)-6a-ethyl-5-methyl-2-(3-phenylpyridin-4-yl)-6a,7,9,10-tetrahydro-[1,4]oxazino[3,4-h]pteridin-6(5H)-one], the half-inhibitory concentration (IC50) (commonly the point on the concentration scale where inhibition reaches its midpoint) is 1 to 10 µM on GST-PLK1, below 1 µM on GST-PLK2 and 1 to 10 µM on GST-PLK3. Further, the “PLK2 activity relative to the opposite enantiomer / other isomer” value at GST-PLK2 was “more active compound”.

On to `CC[C@@H]1C(=O)N(C)c2cnc(-c3cnncc3-c3ccccc3)nc2N1C1CCCC1` [Example 139, (R)-8-cyclopentyl-7-ethyl-5-methyl-2-(5-phenylpyridazin-4-yl)-7,8-dihydropteridin-6(5H)-one], for which the IC50 on GST-PLK1, at GST-PLK2 and at GST-PLK3 was below 1 µM in each case.

In the case of `CC[C@@H]1C(=O)N(C)c2cnc(-n3ccnc3-c3ccncc3)nc2N1C1CCCC1` [Example 83, (R)-8-cyclopentyl-7-ethyl-5-methyl-2-(2-(pyridin-4-yl)-1H-imidazol-1-yl)-7,8-dihydropteridin-6(5H)-one], the IC50 at GST-PLK1, on GST-PLK2 and on GST-PLK3 was below 1 µM in each case.

Take `CC[C@@H]1CC[C@@]2(CC)C(=O)N(C)c3cnc(-n4ccnc4-c4ccccc4)nc3N12` [Example 309, (6aS,9R)-6a,9-diethyl-5-methyl-2-(2-phenyl-1H-imidazol-1-yl)-6a,7,8,9-tetrahydropyrrolo[2,1-h]pteridin-6(5H)-one]: the concentration for half-maximal inhibition (IC50) at GST-PLK1, on GST-PLK2 and on GST-PLK3 was below 1 µM in each case.

On to `CC[C@@H]1C(=O)N(C)c2cnc(-c3cnoc3-c3ccccc3)nc2N1C1CCCC1` [Example 133, (R)-8-cyclopentyl-7-ethyl-5-methyl-2-(5-phenylisoxazol-4-yl)-7,8-dihydropteridin-6(5H)-one], for which the IC50 at GST-PLK1, on GST-PLK2 and at GST-PLK3 was below 1 µM throughout.

Consider `CC[C@@]12COCCN1c1nc(-c3cn[nH]c3-c3ccc(F)cc3F)ncc1N(C)C2=O` [Example 411, (S)-2-(5-(2,4-difluorophenyl)-1H-pyrazol-4-yl)-6a-ethyl-5-methyl-6a,7,9,10-tetrahydro-[1,4]oxazino[3,4-h]pteridin-6(5H)-one], for which the IC50 at GST-PLK1 was 10 to 50 µM; at GST-PLK2, below 1 µM; at GST-PLK3, 1 to 10 µM. Further, at GST-PLK2, the “PLK2 activity relative to the opposite enantiomer / other isomer” value is “more active compound”.

For the molecule `CC[C@@H]1C(=O)N(C)c2cnc(-n3ccc(C(=O)O)n3)nc2N1C1CCCC1` [Example 56, (R)-1-(8-cyclopentyl-7-ethyl-5-methyl-6-oxo-5,6,7,8-tetrahydropteridin-2-yl)-1H-pyrazole-3-carboxylic acid], the IC50 is 1 to 10 µM on GST-PLK1, below 1 µM at GST-PLK2 and 10 to 50 µM on GST-PLK3.

On to `CC[C@@H]1C(=O)N(C)c2cnc(-n3ccnc3-c3cccnn3)nc2N1C(C)C` [Example 152, (R)-7-ethyl-8-isopropyl-5-methyl-2-(2-(pyridazin-3-yl)-1H-imidazol-1-yl)-7,8-dihydropteridin-6(5H)-one], for which the values for the concentration for half-maximal inhibition (IC50) at GST-PLK1, at GST-PLK2 and on GST-PLK3 were 10 to 50 µM, below 1 µM and above 50 µM, respectively.

In the case of `CC[C@@H]1C(=O)N(C)c2cnc(-n3ncnc3-c3ccccc3)nc2N1C1CCCC1` [Example 135, (R)-8-cyclopentyl-7-ethyl-5-methyl-2-(5-phenyl-1H-1,2,4-triazol-1-yl)-7,8-dihydropteridin-6(5H)-one], the IC50 at GST-PLK1, at GST-PLK2 and at GST-PLK3 was below 1 µM in each case.

For `CC[C@@H]1C(=O)N(C)c2cnc(-n3ccnc3-c3cccnc3)nc2N1C(C)C` [Example 154, (R)-7-ethyl-8-isopropyl-5-methyl-2-(2-(pyridin-3-yl)-1H-imidazol-1-yl)-7,8-dihydropteridin-6(5H)-one], the IC50 on GST-PLK1 was 1 to 10 µM; at GST-PLK2, below 1 µM; on GST-PLK3, 10 to 50 µM.

On to `CC[C@@]12CCCN1c1nc(-n3ccnc3-c3ccncc3)ncc1N(C)C2=O` [Example 101, (S)-6a-ethyl-5-methyl-2-(2-(pyridin-4-yl)-1H-imidazol-1-yl)-6a,7,8,9-tetrahydropyrrolo[2,1-h]pteridin-6(5H)-one], for which the IC50 at GST-PLK1 was 10 to 50 µM; at GST-PLK2, below 1 µM; on GST-PLK3 it was 10 to 50 µM.

As to `CC[C@@H]1C(=O)N(C)c2cnc(-n3ccnc3-c3ccccc3)nc2N1c1cnn(C)c1` [Example 409, (R)-7-ethyl-5-methyl-8-(1-methyl-1H-pyrazol-4-yl)-2-(2-phenyl-1H-imidazol-1-yl)-7,8-dihydropteridin-6(5H)-one], the 50% inhibitory concentration (IC50) on GST-PLK1 is below 1 µM; on GST-PLK2, below 1 µM; on GST-PLK3, 1 to 10 µM. Moreover, the “PLK2 activity relative to the opposite enantiomer / other isomer” value at GST-PLK2 is listed as “more active compound”.

Regarding `CC[C@@H]1C(=O)N(C)c2cnc(-c3ccncc3)nc2N1C1CCC1` [Example 109, (R)-8-cyclobutyl-7-ethyl-5-methyl-2-(pyridin-4-yl)-7,8-dihydropteridin-6(5H)-one], the half-maximal inhibitory concentration (IC50) was 1 to 10 µM on GST-PLK1, below 1 µM at GST-PLK2 and 10 to 50 µM on GST-PLK3.

`CC[C@@H]1C(=O)N(C)c2cnc(-c3cnsc3-c3ccc(F)cc3)nc2N1C(C)C` [Example 296, (R)-7-ethyl-2-(5-(4-fluorophenyl)isothiazol-4-yl)-8-isopropyl-5-methyl-7,8-dihydropteridin-6(5H)-one]: the IC50 at GST-PLK1 was below 1 µM; on GST-PLK2, below 1 µM; at GST-PLK3 it was 1 to 10 µM.

As for `CC[C@@H]1C(=O)N(C)c2cnc(-n3nccc3-c3ccccc3)nc2N1C(C)C` [Example 188, (R)-7-ethyl-8-isopropyl-5-methyl-2-(5-phenyl-1H-pyrazol-1-yl)-7,8-dihydropteridin-6(5H)-one], the half-maximal inhibitory concentration (IC50) at GST-PLK1 was below 1 µM; at GST-PLK2 it was below 1 µM; at GST-PLK3, 1 to 10 µM.

Turning to `CC[C@@H]1C(=O)N(C)c2cnc(-n3ccnc3Br)nc2N1C1CCCC1` [Example 65, (R)-2-(2-bromo-1H-imidazol-1-yl)-8-cyclopentyl-7-ethyl-5-methyl-7,8-dihydropteridin-6(5H)-one], the half-inhibitory concentration (IC50) on GST-PLK1 is below 1 µM; on GST-PLK2 it was below 1 µM; at GST-PLK3, 10 to 50 µM.

Turning to `CC[C@]12COCCN1c1nc(-c3ccncc3-c3ccccc3)ncc1N(C)C2=O` [Example 396, (R)-6a-ethyl-5-methyl-2-(3-phenylpyridin-4-yl)-6a,7,9,10-tetrahydro-[1,4]oxazino[3,4-h]pteridin-6(5H)-one], the IC50 on GST-PLK1, on GST-PLK2 and at GST-PLK3 was above 50 µM in each case.

As for `CC[C@@H]1C(=O)N(C)c2cnc(-n3ccnc3-c3cncnc3)nc2N1C1CCC1` [Example 176, (R)-8-cyclobutyl-7-ethyl-5-methyl-2-(2-(pyrimidin-5-yl)-1H-imidazol-1-yl)-7,8-dihydropteridin-6(5H)-one], the IC50 on GST-PLK1 is 1 to 10 µM; at GST-PLK2 it was below 1 µM; at GST-PLK3, above 50 µM.

For `CCC12CN(C)CCN1c1nc(-n3ccnc3-c3ccccc3)ncc1N(C)C2=O` (racemic) [Example 371, 6a-ethyl-5,8-dimethyl-2-(2-phenyl-1H-imidazol-1-yl)-7,8,9,10-tetrahydro-5H-pyrazino[2,1-h]pteridin-6(6aH)-one], the IC50 was above 50 µM on GST-PLK1, below 1 µM at GST-PLK2 and above 50 µM on GST-PLK3.

Regarding `CC[C@@H]1C(=O)N(C)c2cnc(-n3ccnc3-c3ncccn3)nc2N1C(C)C` [Example 148, (R)-7-ethyl-8-isopropyl-5-methyl-2-(2-(pyrimidin-2-yl)-1H-imidazol-1-yl)-7,8-dihydropteridin-6(5H)-one], the values for the IC50 on GST-PLK1, at GST-PLK2 and on GST-PLK3 were 1 to 10 µM, below 1 µM and 10 to 50 µM, respectively.

Regarding `CC[C@@H]1C(=O)N(C)c2cnc(-n3cc(C(=O)N4CCOCC4)cn3)nc2N1C1CCCC1` [Example 41, (R)-8-cyclopentyl-7-ethyl-5-methyl-2-(4-(morpholine-4-carbonyl)-1H-pyrazol-1-yl)-7,8-dihydropteridin-6(5H)-one], the IC50 at GST-PLK1 was in the range of 1 to 10 µM; at GST-PLK2, 1 to 10 µM; at GST-PLK3, 10 to 50 µM.

Regarding `CC[C@@H]1C(=O)N(C)c2cnc(-n3ccc(=N)cc3)nc2N1C1CCCC1` [Example 73, (R)-8-cyclopentyl-7-ethyl-2-(4-iminopyridin-1(4H)-yl)-5-methyl-7,8-dihydropteridin-6(5H)-one], the results for the half-maximal inhibitory concentration (IC50) at GST-PLK1, on GST-PLK2 and on GST-PLK3 were 10 to 50 µM, 1 to 10 µM and above 50 µM, respectively.

`CC[C@@H]1C(=O)N(C)c2cnc(-n3ccnc3-c3ccc(F)cc3)nc2N1c1ccn(C)n1` [Example 407, (R)-7-ethyl-2-(2-(4-fluorophenyl)-1H-imidazol-1-yl)-5-methyl-8-(1-methyl-1H-pyrazol-3-yl)-7,8-dihydropteridin-6(5H)-one]: the values for the half-inhibitory concentration (IC50) on GST-PLK1, on GST-PLK2 and on GST-PLK3 were 1 to 10 µM, below 1 µM and 1 to 10 µM, respectively. For the same molecule, on GST-PLK2, the “PLK2 activity relative to the opposite enantiomer / other isomer” value was “more active compound”.

Consider `CC[C@]12CN(C)CCN1c1nc(-n3ccnc3-c3ccccc3)ncc1N(C)C2=O` [Example 375, (R)-6a-ethyl-5,8-dimethyl-2-(2-phenyl-1H-imidazol-1-yl)-7,8,9,10-tetrahydro-5H-pyrazino[2,1-h]pteridin-6(6aH)-one], for which the IC50 was above 50 µM at GST-PLK1, 10 to 50 µM at GST-PLK2 and above 50 µM at GST-PLK3.

Take `CCC12COCCN1c1nc(-n3ccnc3-c3ccccc3)ncc1N(C)C2=O` (racemic) [Example 317, 6a-ethyl-5-methyl-2-(2-phenyl-1H-imidazol-1-yl)-6a,7,9,10-tetrahydro-[1,4]oxazino[3,4-h]pteridin-6(5H)-one]: the results for the IC50 on GST-PLK1, on GST-PLK2 and on GST-PLK3 were 10 to 50 µM, below 1 µM and 1 to 10 µM, respectively.
